Measured values taken from patent EP0623131B1 (ANGELINI RICERCHE S.p.A. SOCIETA' CONSORTILE, priority 1992, dated 1993).

Assay: DL50 (acute lethal dose)
Conditions: species, route and unit not given

Structure (SMILES) | DL₅₀
CC(CCn1nc2ccccn2c1=O)N1CCN(c2cccc(Cl)c2)CC1 (centres unmarked) [(I) R=R"=R'''=H; R'=CH₃, 2-[3-[4-(3-chlorophenyl)-1-piperazinyl]-3-methylpropyl]-1,2,4-triazole-[4,3-a]-pyridin-3(2H)-one] | ≤ 300
CC(CN1CCN(c2cccc(Cl)c2)CC1)Cn1nc2ccccn2c1=O (centres unmarked) [(I) R'=R"=R'''=H; R=CH₃, 2-[3-[4-(3-chlorophenyl)-1-piperazinyl]-2-methylpropyl]-1,2,4-triazole[4,3-a]-pyridin-3-(2H)-one] | ≤ 600
CC1CN(CCCn2nc3ccccn3c2=O)CCN1c1cccc(Cl)c1 (centres unmarked) [(I) R=R'=R"=H; R'''=CH₃, 2-[3-[4-(3-chlorophenyl)-1-(3-methyl)-piperazinyl]-propyl]-1,2,4-triazole-[4,3-a]-pyridin-3(2H)-one] | ≤ 600
CC1CN(c2cccc(Cl)c2)CCN1CCCn1nc2ccccn2c1=O (centres unmarked) [(I) R=R'=R'''=H; R"=CH₃, 2-[3-[4-(3-chlorophenyl)-1-(2-methyl)-piperazinyl]-propyl]-1,2,4-triazole-[4,3-a]-pyridin-3(2H)-one] | 300
O=c1n(CCCN2CCN(c3cccc(Cl)c3)CC2)nc2ccccn12 [trazodone, Trazodone, reference compound] | ≥ 200
